Test results as given in PubChem BioAssay (NCI).
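The compound was tested at five concentrations on cells cultured in 96-well plates, with a 48-hour exposure period. Abbreviation: GI50, concentration required for 50% inhibition of growth. TGI: total growth inhibition.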

Legend:
Test in all cases: inhibition of tumour cell growth, NCI panel, 48 h
NCI-H522 lung = test system: NCI-H522 lung
OVCAR-5 ovarian = test system: OVCAR-5 ovarian
SF-268 CNS = test system: SF-268 CNS
SK-OV-3 ovarian = test system: SK-OV-3 ovarian
PC-3 prostate = test system: PC-3 prostate
RXF 393 renal = test system: RXF 393 renal
SF-539 CNS = test system: SF-539 CNS
HCT-15 colon = test system: HCT-15 colon
OVCAR-3 ovarian = test system: OVCAR-3 ovarian
HS 578T breast = test system: HS 578T breast
SW-620 colon = test system: SW-620 colon
IGROV1 ovarian = test system: IGROV1 ovarian
T-47D breast = test system: T-47D breast
HL-60(TB) leukemia = test system: HL-60(TB) leukemia
SK-MEL-2 melanoma = test system: SK-MEL-2 melanoma
NCI-H460 lung = test system: NCI-H460 lung
TK-10 renal = test system: TK-10 renal
OVCAR-8 ovarian = test system: OVCAR-8 ovarian
BT-549 breast = test system: BT-549 breast
CAKI-1 renal = test system: CAKI-1 renal
RPMI-8226 leukemia = test system: RPMI-8226 leukemia
SK-MEL-28 melanoma = test system: SK-MEL-28 melanoma
HCC-2998 colon = test system: HCC-2998 colon
M14 melanoma = test system: M14 melanoma
OVCAR-4 ovarian = test system: OVCAR-4 ovarian
A549 NSCLC = test system: A549 NSCLC
UACC-257 melanoma = test system: UACC-257 melanoma
NCI-H226 lung = test system: NCI-H226 lung
SF-295 CNS = test system: SF-295 CNS
MDA-MB-435 = test system: MDA-MB-435
SN12C renal = test system: SN12C renal
CCRF-CEM leukemia = test system: CCRF-CEM leukemia
HOP-62 NSCLC = test system: HOP-62 NSCLC
SR leukemia = test system: SR leukemia
COLO 205 colon = test system: COLO 205 colon
U251 CNS = test system: U251 CNS
SK-MEL-5 melanoma = test system: SK-MEL-5 melanoma
786-0 renal = test system: 786-0 renal
SNB-75 CNS = test system: SNB-75 CNS
LOX IMVI melanoma = test system: LOX IMVI melanoma
DU-145 prostate = test system: DU-145 prostate
MOLT-4 leukemia = test system: MOLT-4 leukemia
SNB-19 CNS = test system: SNB-19 CNS
ACHN renal = test system: ACHN renal
EKVX NSCLC = test system: EKVX NSCLC
K-562 leukemia = test system: K-562 leukemia
UACC-62 melanoma = test system: UACC-62 melanoma
MCF7 breast = test system: MCF7 breast
HOP-92 NSCLC = test system: HOP-92 NSCLC
MALME-3M melanoma = test system: MALME-3M melanoma
A498 renal = test system: A498 renal
UO-31 renal = test system: UO-31 renal
NCI/ADR-RES ovarian = test system: NCI/ADR-RES ovarian
HCT-116 colon = test system: HCT-116 colon
NCI-H23 lung = test system: NCI-H23 lung
KM12 colon = test system: KM12 colon
HT29 colon = test system: HT29 colon
MDA-MB-231 breast = test system: MDA-MB-231 breast

Q: What does the source list for `Cc1cc2nc3c4cc(C=O)ccc4n(CCN(C)C)c3nc2cc1C`?
A: GI50 (NCI-H522 lung): 1870 nM; TGI (NCI-H522 lung): 4910 nM; GI50 (OVCAR-5 ovarian): 2170 nM; TGI (OVCAR-5 ovarian): 7230 nM; GI50 (SF-268 CNS): 2050 nM; TGI (SF-268 CNS): 6630 nM; GI50 (SK-OV-3 ovarian): 2350 nM; TGI (SK-OV-3 ovarian): 10900 nM; GI50 (PC-3 prostate): 1620 nM; TGI (PC-3 prostate): 5710 nM; GI50 (RXF 393 renal): 1060 nM; TGI (RXF 393 renal): 2740 nM; GI50 (SF-539 CNS): 1510 nM; TGI (SF-539 CNS): 3870 nM; GI50 (HCT-15 colon): 1360 nM; TGI (HCT-15 colon): 7240 nM; GI50 (OVCAR-3 ovarian): 1970 nM; TGI (OVCAR-3 ovarian): 6580 nM; GI50 (HS 578T breast): 2250 nM; TGI (HS 578T breast): 6700 nM; GI50 (SW-620 colon): 479 nM; TGI (SW-620 colon): 4310 nM; GI50 (IGROV1 ovarian): 1520 nM; TGI (IGROV1 ovarian): 6390 nM; GI50 (T-47D breast): 2140 nM; TGI (T-47D breast): 7040 nM; GI50 (HL-60(TB) leukemia): 1350 nM; TGI (HL-60(TB) leukemia): 5840 nM; GI50 (SK-MEL-2 melanoma): 1760 nM; TGI (SK-MEL-2 melanoma): 3650 nM; GI50 (NCI-H460 lung): 1190 nM; TGI (NCI-H460 lung): 10100 nM; GI50 (TK-10 renal): 1970 nM; TGI (TK-10 renal): 6590 nM; GI50 (OVCAR-8 ovarian): 777 nM; TGI (OVCAR-8 ovarian): 10900 nM; GI50 (BT-549 breast): 2150 nM; TGI (BT-549 breast): 5350 nM; GI50 (CAKI-1 renal): 1700 nM; TGI (CAKI-1 renal): 9690 nM; GI50 (RPMI-8226 leukemia): 1910 nM; TGI (RPMI-8226 leukemia): 5160 nM; GI50 (SK-MEL-28 melanoma): 1780 nM; TGI (SK-MEL-28 melanoma): 3650 nM; GI50 (HCC-2998 colon): 1330 nM; TGI (HCC-2998 colon): 3140 nM; GI50 (M14 melanoma): 1300 nM; TGI (M14 melanoma): 2950 nM; GI50 (OVCAR-4 ovarian): 2120 nM; TGI (OVCAR-4 ovarian): 7750 nM; GI50 (A549 NSCLC): 851 nM; TGI (A549 NSCLC): 10400 nM; GI50 (UACC-257 melanoma): 1960 nM; TGI (UACC-257 melanoma): 4800 nM; GI50 (NCI-H226 lung): 2070 nM; TGI (NCI-H226 lung): 7320 nM; GI50 (SF-295 CNS): 696 nM; TGI (SF-295 CNS): 5690 nM; GI50 (MDA-MB-435): 1660 nM; TGI (MDA-MB-435): 3070 nM; GI50 (SN12C renal): 1030 nM; TGI (SN12C renal): 8040 nM; GI50 (CCRF-CEM leukemia): 1140 nM; TGI (CCRF-CEM leukemia): 7770 nM; GI50 (HOP-62 NSCLC): 1540 nM; TGI (HOP-62 NSCLC): 10100 nM; GI50 (SR leukemia): 435 nM; TGI (SR leukemia): 11100 nM; GI50 (COLO 205 colon): 574 nM; TGI (COLO 205 colon): 2100 nM; GI50 (U251 CNS): 1650 nM; TGI (U251 CNS): 10100 nM; GI50 (SK-MEL-5 melanoma): 1690 nM; TGI (SK-MEL-5 melanoma): 3330 nM; GI50 (786-0 renal): 1430 nM; TGI (786-0 renal): 9960 nM; GI50 (SNB-75 CNS): 1980 nM; TGI (SNB-75 CNS): 5000 nM; GI50 (LOX IMVI melanoma): 532 nM; TGI (LOX IMVI melanoma): 2500 nM; GI50 (DU-145 prostate): 3030 nM; TGI (DU-145 prostate): 10600 nM; GI50 (MOLT-4 leukemia): 389 nM; TGI (MOLT-4 leukemia): 10300 nM; GI50 (SNB-19 CNS): 1650 nM; TGI (SNB-19 CNS): 9090 nM; GI50 (ACHN renal): 426 nM; TGI (ACHN renal): 4560 nM; GI50 (EKVX NSCLC): 2040 nM; TGI (EKVX NSCLC): 6270 nM; GI50 (K-562 leukemia): 820 nM; TGI (K-562 leukemia): 18600 nM; GI50 (UACC-62 melanoma): 1750 nM; TGI (UACC-62 melanoma): 3700 nM; GI50 (MCF7 breast): 1820 nM; TGI (MCF7 breast): 5990 nM; GI50 (HOP-92 NSCLC): 1490 nM; TGI (HOP-92 NSCLC): 7350 nM; GI50 (MALME-3M melanoma): 1290 nM; TGI (MALME-3M melanoma): 2760 nM; GI50 (A498 renal): 500 nM; TGI (A498 renal): 2090 nM; GI50 (UO-31 renal): 846 nM; TGI (UO-31 renal): 8780 nM; GI50 (NCI/ADR-RES ovarian): 607 nM; TGI (NCI/ADR-RES ovarian): 6970 nM; GI50 (HCT-116 colon): 484 nM; TGI (HCT-116 colon): 9100 nM; GI50 (NCI-H23 lung): 1490 nM; TGI (NCI-H23 lung): 4450 nM; GI50 (KM12 colon): 2120 nM; TGI (KM12 colon): 10000 nM; GI50 (HT29 colon): 656 nM; TGI (HT29 colon): 3740 nM; GI50 (MDA-MB-231 breast): 1830 nM; TGI (MDA-MB-231 breast): 6990 nM
